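The compound was tested at five concentrations on cells cultured in 96-well plates, with a 48-hour exposure period. Definition used: TGI = concentration required for complete inhibition of growth.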
Columns and labels:
Experiment in all cases: NCI-60 cell line screen, 48 h
[1] = test system: 786-0 renal
[2] = test system: A498 renal
[3] = test system: A549 NSCLC
[4] = test system: ACHN renal
[5] = test system: BT-549 breast
[6] = test system: CAKI-1 renal
[7] = test system: CCRF-CEM leukemia
[8] = test system: COLO 205 colon
[9] = test system: DU-145 prostate
[10] = test system: EKVX NSCLC
[11] = test system: HCT-116 colon
[12] = test system: HCT-15 colon
[13] = test system: HL-60(TB) leukemia
[14] = test system: HOP-62 NSCLC
[15] = test system: HOP-92 NSCLC
[16] = test system: HS 578T breast
[17] = test system: HT29 colon
[18] = test system: IGROV1 ovarian
[19] = test system: K-562 leukemia
[20] = test system: KM12 colon
[21] = test system: LOX IMVI melanoma
[22] = test system: M14 melanoma
[23] = test system: MALME-3M melanoma
[24] = test system: MCF7 breast
[25] = test system: MDA-MB-231 breast
[26] = test system: MDA-MB-435
[27] = test system: MDA-N
[28] = test system: MOLT-4 leukemia
[29] = test system: NCI-H226 lung
[30] = test system: NCI-H23 lung
[31] = test system: NCI-H522 lung
[32] = test system: NCI/ADR-RES ovarian
[33] = test system: OVCAR-3 ovarian
[34] = test system: OVCAR-4 ovarian
[35] = test system: OVCAR-5 ovarian
[36] = test system: OVCAR-8 ovarian
[37] = test system: PC-3 prostate
[38] = test system: RPMI-8226 leukemia
[39] = test system: RXF 393 renal
[40] = test system: SF-268 CNS
[41] = test system: SF-295 CNS
[42] = test system: SF-539 CNS
[43] = test system: SK-MEL-2 melanoma
[44] = test system: SK-MEL-28 melanoma
[45] = test system: SK-MEL-5 melanoma
[46] = test system: SN12C renal
[47] = test system: SNB-19 CNS
[48] = test system: SW-620 colon
[49] = test system: T-47D breast
[50] = test system: TK-10 renal
[51] = test system: U251 CNS
[52] = test system: UACC-257 melanoma
[53] = test system: UACC-62 melanoma
[54] = test system: UO-31 renal
[55] = test system: HCC-2998 colon
[56] = test system: SK-OV-3 ovarian
[57] = test system: SNB-75 CNS
[58] = test system: SR leukemia
[59] = test system: NCI-H460 lung

CC1S/C(=N/c2nnc(-c3ccccc3)o2)NC1=O (stereo not given)
TGI [1]: 85.4 µM
TGI [2]: > 100 µM
TGI [3]: > 100 µM
TGI [4]: > 100 µM
TGI [5]: > 100 µM
TGI [6]: > 100 µM
TGI [7]: > 100 µM
TGI [8]: > 100 µM
TGI [9]: > 100 µM
TGI [10]: 85.2 µM
TGI [11]: 37.4 µM
TGI [12]: > 100 µM
TGI [13]: > 100 µM
TGI [14]: > 100 µM
TGI [15]: > 100 µM
TGI [16]: > 100 µM
TGI [17]: 69.8 µM
TGI [18]: > 100 µM
TGI [19]: > 100 µM
TGI [20]: > 100 µM
TGI [21]: > 100 µM
TGI [22]: 56.5 µM
TGI [23]: > 100 µM
TGI [24]: > 100 µM
TGI [25]: > 100 µM
TGI [26]: > 100 µM
TGI [27]: > 100 µM
TGI [28]: > 100 µM
TGI [29]: > 100 µM
TGI [30]: > 100 µM
TGI [31]: > 100 µM
TGI [32]: > 100 µM
TGI [33]: 69.5 µM
TGI [34]: > 100 µM
TGI [35]: > 100 µM
TGI [36]: > 100 µM
TGI [37]: > 100 µM
TGI [38]: > 100 µM
TGI [39]: > 100 µM
TGI [40]: > 100 µM
TGI [41]: > 100 µM
TGI [42]: > 100 µM
TGI [43]: > 100 µM
TGI [44]: > 100 µM
TGI [45]: > 100 µM
TGI [46]: > 100 µM
TGI [47]: > 100 µM
TGI [48]: > 100 µM
TGI [49]: > 100 µM
TGI [50]: > 100 µM
TGI [51]: > 100 µM
TGI [52]: > 100 µM
TGI [53]: > 100 µM
TGI [54]: > 100 µM

CCCCc1ccc(Nc2nc3c(ncn3COCCO)c(=O)[nH]2)cc1
TGI [1]: > 100 µM
TGI [2]: > 100 µM
TGI [3]: > 100 µM
TGI [4]: > 100 µM
TGI [5]: > 100 µM
TGI [7]: > 100 µM
TGI [8]: > 100 µM
TGI [9]: > 100 µM
TGI [10]: > 100 µM
TGI [55]: > 100 µM
TGI [11]: > 100 µM
TGI [12]: > 100 µM
TGI [13]: > 100 µM
TGI [14]: > 100 µM
TGI [15]: > 100 µM
TGI [16]: > 100 µM
TGI [17]: > 100 µM
TGI [18]: > 100 µM
TGI [19]: > 100 µM
TGI [20]: > 100 µM
TGI [21]: > 100 µM
TGI [22]: > 100 µM
TGI [23]: > 100 µM
TGI [24]: > 100 µM
TGI [25]: > 100 µM
TGI [26]: > 100 µM
TGI [27]: > 100 µM
TGI [28]: > 100 µM
TGI [29]: > 100 µM
TGI [30]: > 100 µM
TGI [31]: > 100 µM
TGI [32]: > 100 µM
TGI [33]: > 100 µM
TGI [34]: > 100 µM
TGI [35]: > 100 µM
TGI [36]: > 100 µM
TGI [38]: > 100 µM
TGI [39]: > 100 µM
TGI [40]: > 100 µM
TGI [41]: > 100 µM
TGI [42]: > 100 µM
TGI [43]: > 100 µM
TGI [45]: > 100 µM
TGI [56]: > 100 µM
TGI [46]: > 100 µM
TGI [47]: > 100 µM
TGI [57]: > 100 µM
TGI [58]: > 100 µM
TGI [48]: > 100 µM
TGI [49]: > 100 µM
TGI [50]: > 100 µM
TGI [51]: > 100 µM
TGI [52]: > 100 µM
TGI [53]: > 100 µM
TGI [54]: > 100 µM

Clc1ccc(OCc2nnc(CCCCCCCCc3nnc(COc4ccc(Cl)cc4)n3Nc3ccccc3)n2Nc2ccccc2)cc1
TGI [1]: 58 µM
TGI [2]: > 100 µM
TGI [3]: > 83.3 µM
TGI [4]: > 93 µM
TGI [5]: 97.5 µM
TGI [6]: 27.2 µM
TGI [8]: 0.894 µM
TGI [9]: > 80.9 µM
TGI [10]: > 87.9 µM
TGI [55]: > 68.7 µM
TGI [11]: 24.2 µM
TGI [12]: > 100 µM
TGI [14]: > 100 µM
TGI [15]: 77 µM
TGI [16]: > 100 µM
TGI [17]: 34.3 µM
TGI [18]: > 100 µM
TGI [19]: > 100 µM
TGI [20]: 36.9 µM
TGI [21]: 42.6 µM
TGI [22]: > 38.3 µM
TGI [23]: > 65.6 µM
TGI [24]: > 100 µM
TGI [25]: > 100 µM
TGI [26]: > 63.4 µM
TGI [27]: 37.1 µM
TGI [28]: > 100 µM
TGI [29]: > 100 µM
TGI [30]: > 100 µM
TGI [59]: > 100 µM
TGI [31]: 34.5 µM
TGI [32]: 81.5 µM
TGI [33]: 39.9 µM
TGI [34]: > 100 µM
TGI [35]: > 100 µM
TGI [36]: > 100 µM
TGI [37]: > 100 µM
TGI [38]: 5.13 µM
TGI [39]: 70.8 µM
TGI [40]: > 100 µM
TGI [41]: > 100 µM
TGI [42]: 40.1 µM
TGI [43]: 63.5 µM
TGI [44]: > 100 µM
TGI [45]: 2.72 µM
TGI [56]: > 100 µM
TGI [46]: 99 µM
TGI [47]: > 100 µM
TGI [57]: > 100 µM
TGI [48]: > 100 µM
TGI [49]: > 100 µM
TGI [50]: > 100 µM
TGI [51]: > 87.4 µM
TGI [52]: > 100 µM
TGI [53]: 38.8 µM
TGI [54]: > 95.1 µM

Reference: PubChem BioAssay (NCI)
